Measured values published in patent US6099857A, “Cell membrane fusion composition and method” (Washington University, priority 1998, dated 2000).
Values belong to the molecule of their own block, whether it stands above or below them.

What was measured:
[1] = biological target: T1, GAPDH isoform (membrane fusion protein) (Oryctolagus cuniculus, UniProt P46406); test: Protein-catalyzed membrane fusion of physiologically-modeled SUVs (R18, stopped flow); format: biochemical, rabbit; conditions: for inhibition of membrane fusion activity: GAPDH isoform-catalyzed fusion of physiologically-modeled SUVs
T1 construct: from tissue; host or cells: rabbit brain (cytosol; DE-52 void volume, HiLoad SP Sepharose, GTP-agarose and Mono Q fractions)
T1 sequence (P46406 2-333 limits assumed): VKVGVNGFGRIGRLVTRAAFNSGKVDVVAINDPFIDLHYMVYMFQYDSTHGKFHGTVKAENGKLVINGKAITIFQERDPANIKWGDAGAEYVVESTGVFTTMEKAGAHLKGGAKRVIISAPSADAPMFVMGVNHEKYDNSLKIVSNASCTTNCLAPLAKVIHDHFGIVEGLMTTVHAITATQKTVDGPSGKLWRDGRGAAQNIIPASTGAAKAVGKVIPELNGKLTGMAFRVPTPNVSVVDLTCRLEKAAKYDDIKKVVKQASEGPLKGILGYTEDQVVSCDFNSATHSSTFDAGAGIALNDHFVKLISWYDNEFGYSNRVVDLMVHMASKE
Protocol: Rabbit brain cytosol was prepared and loaded onto a previously equilibrated DE-52 column. The column was developed with a linear NaCl gradient (0-400 Mm NaCl) and column eluents were assayed for their ability to catalyze membrane fusion utilizing physiologically-modeled small unilamellar vesicles (SUVs) as described in "Materials and Methods". Vesicles were comprised of 16:0-18:1 phosphatidylcholine (27%), 16:0-18:1 phosphatidylserine (6%), cholesterol (40%) and 27% of each of the following ethanolamine glycerophospholipids: 18:0-20:4 plasmenylethanolamine; 16:0-18:1 plasmenylethanolamine; 18:0-20:4 phosphatidylethanolamine; or 16:0-18:1 phosphatidylethanolamine . (----), uv absorbance at 280 nm; (----), NaCl gradient.
Physiologically-modeled SUVs were prepared (concentration=200 μM). The other chamber contained the Pi3 /NAD^+ eluent from GTP-agarose chromatography (0.004 mg/ml) which was previously incubated with (D)-glyceraldehyde 3-phosphate at the indicated concentrations for 30 seconds at 37° C. The rates of membrane fusion from four separate determinations of two preparations were averaged and expressed as a percentage of maximum fusion.
Physiologically-modeled small unilamellar vesicles consisting of 16:0-18:1 phosphatidylcholine (27%), ethanolamine glycerophospholipid (27%), 16:0-18:1 phosphatidylserine (6%) and cholesterol (40%) were prepared (final lipid concentration of 200 μM) and placed in one chamber of a stopped-flow apparatus. Aliquots of the HiLoad SP Sepharose column eluent (protein concentration=0.002 mg/ml) were placed in the other chamber, samples were rapidly mixed in a stopped flow apparatus and membrane fusion was quantified. Ethanolamine glycerophospholipids included 100% plasmenyl ethanolamine (A) 75% plasmenyl ethanolamine and 25% PE (B); 50% plasmenyl ethanolamine and 50% PE (C); and 25% plasmenyl ethanolamine and 75% PE (D;
Vesicles were composed of 16:0-18:1 PC/18:0-20:4 plasmenyl ethanolamine/cholesterol (27/27/40 mole percent) and varying mole percentages of phosphatidylserine (6% phosphatidylserine (A), 12% phosphatidylserine (B), 3% phosphatidylserine (C) or 0% phosphatidylserine (D)).
Physiologically-modeled SUVs containing phosphatidylcholine/18:0-20:4 plasmenylethanolamine/phosphatidylserine (45/45/10 mole ratio) and selected mole percentages of cholesterol (i.e., 40% cholesterol (A), 20% cholesterol (B), or 0% cholesterol (C)) were placed in one chamber of a stopped-flow apparatus. The other chamber contained aliquots of the active fraction from GTP-agarose chromatography (i.e., 20 mM tripolyphosphate/10 mM NAD^+ (Pi3 /NAD^+)), at a protein concentration of 0.004 mg/ml. Samples were rapidly mixed and membrane fusion was quantified. Results represent the average of six recordings from two independent preparations expressed as a percentage of maximal fusion.
The isolation of a GAPDH isoform that has been discovered to catalyze vesicle fusion, in accordance with the invention, is described in Example 5. Briefly, a […] homogenate was centrifuged at high speed to produce a cytosol. Dialyzed cytosol was fractionated on a DE-52 column, and the fractions were assayed in a vesicle fusion assay. The lipid vesicles that were used in the assay were composed of 27 mole percent of […], 6 mole percent PS, 40 mole percent cholesterol, and 27 mole percent […]. These vesicles show little measurable self-fusion activity, as evidenced by change in fluorescence in an R18 assay (half of the vesicles labeled with R18). […] The reasons underlying the cryptic nature of this activity in crude cytosol have been elaborated, showing that the cytosol contains a potent endogenous protein inhibitor of fusion activity. […]

[2] = NBD-PE/Rh-PE lipid-mixing fusion assay with PS SUVs; conditions: equal molar mixture with PC; NBD-PE dequenching
Protocol: In the NBD-PE/Rh-PE assay detailed in Example 2B, NBD-PE (N-(7-nitrobenz-2-oxa-1,3-diazol-4-yl)-1,2-dihexadecanoyl-sn-glycerol-3-phosphoethanolamine), and Rh-PE are incorporated into PS SUV's and the vesicles are mixed with test vesicles. Vesicle fusion is followed by the change in fluorescence emission at 530 nm, after […] at 464 nm.
This assay was performed by preparing phosphatidylserine SUVs containing 1.8% Rh-PE and 1.2% NBD-PE and adding an equimolar amount of unlabelled PC/PE vesicles pursuant to (Struck, et al. (1981); and Hoekstra, 1982). Fusion was monitored by NBD-PE fluorescence at 530 nm after excitation at 464 nm. The 100% fusion level was assessed by preparing lipid vesicles composed of 46.5% PS, 25% PC, 25% PE, 0.9% Rh-PE, and 0.6% NBD-PE and subsequently quantifying fluorescence intensity.
Since Rh-PE partially quenches NBD-PE fluorescence by resonance energy transfer at the initial concentrations used in these experiments, membrane fusion results in an increase in NBD-PE fluorescence as available membrane surface area increases.
To verify the results obtained with the R18 fusion assay, a second lipid-mixing assay utilizing NBD-PE and Rh-PE was used. […]

[3] = R18 assay of calcium-induced fusion of SUVs of ternary PS/PC/ethanolamine glycerophospholipid mixtures
[4] = Breakdown of lipids in vesicles during fusion studies (TLC, straight-phase HPLC, 3H label); format: physicochemical; conditions: within the time frame of the assay
Source text: To verify the differences in observed fusion rates were not due to selective breakdown of one subclass of ethanolamine glycerophospholipid, aliquots of lipid vesicles employed in the fusion studies were extracted by the method of Bligh and Dyer and analyzed by TLC and straight-phase HPLC. No lysophospholipids or other contaminants were detected within the time frame of the assay. For higher sensitivity detection, 16:0-18:1 plasmenyl ethanolamine was synthesized with a ^3 H label on the sn-2 oleoyl group. This label was added to a liposome preparation containing unlabeled PC and PE.

[5] = biological target: T2, GAPDH (Oryctolagus cuniculus, UniProt P46406); test: Glyceraldehyde 3-phosphate dehydrogenase activity (spectrophotometric, NADH); format: biochemical, rabbit
T2 construct: Column eluents were assayed for GAPDH activity and membrane fusion activity; from tissue; host or cells: rabbit brain (column eluents of the purification)
T2 sequence (P46406 2-333 limits assumed): as above
Protocol: The activity of GAPDH was measured spectrophotometrically utilizing modifications of the methods of Cori, .backslash.at al. (1948) and Steck, et al. (1973). Briefly, sample was added to a 1 cm path-length semi-micro cuvette containing 50 mM triethanolamine (pH 7-6), sodium arsenate (50 mM) (pH 8.8), 2.4 mM glutathione (reduced), 0.5 mM NAD, and water in a final volume of 990 .backslash.pl. After establishing a baseline (1 min), the reaction was initiated with 10 μl of 10 mM D-glyceraldehyde 3-phosphate (prepared according to Sigma product bulletin G-8007) and absorbance at 340 nm was measured for 5 minutes. Units of GAPDH activity represent the mass (μmol) of D-glyceraldehyde 3-phosphate converted per minute. The mass of NADH generated was calculated utilizing ε=[…].

inhibition of membrane fusion activity [1]: inhibited
Molecule: O=C[C@H](O)COP(=O)(O)O [D-glyceraldehyde 3-phosphate]

Molecule: CCCCCCCC/C=C\CCCCCCCC(=O)O[C@H](CO/C=C\CCCCCCCCCCCCCC)COP(=O)(O)OCCN [16:0-18:1 plasmenyl ethanolamine]
rate of fusion to PS SUVs relative to PC/16:0-18:1 phosphatidylethanolamine vesicles [2]: three times more rapidly
initial rate of membrane fusion relative to vesicles with 16:0-18:1 phosphatidylethanolamine ([3]; 45% PC/45% PE/10% PS vesicles): significantly greater
fusogenicity relative to vesicles containing 16:0-18:1 phosphatidylethanolamine ([3]; POPS/POPC/ethanolamine glycerophospholipid (1:1:1) SUVs): six times more fusogenic
breakdown of lipid during the fusion procedures [4]: No significant generation of radiolabeled fatty acid or lysophospholipid

Molecule: CCN1C(=O)C=CC1=O [N-ethylmaleimide]
inhibition of membrane fusion-catalyzing activity ([1]; 1 mM for 60 minutes at 37° C., void volume activity): not inhibited

inactivation of membrane fusion-catalyzing activity ([1]; 1 mM for 30 minutes at 37° C., void volume activity): inactivated
Molecule: O=C(O)c1cc(SSc2ccc([N+](=O)[O-])c(C(=O)O)c2)ccc1[N+](=O)[O-] [DTNB]

time for catalyzed fusion of one pair of vesicles (on average) ([1]; calculated, protein 4 μg/ml, assumes ≈1000 lipid molecules per vesicle and tetramer): 1 ms
selectivity of membrane fusion activity for vesicles containing plasmenylethanolamine compared with phosphatidylethanolamine ([1]; each stage of the purification procedure): highly selective
Molecule: GAPDH isoform: 38 kDa isoform of glyceraldehyde-3-phosphate dehydrogenase purified from rabbit brain cytosol that catalyzes vesicle fusion

inhibition of membrane fusion activity [1]: failed to inhibit
inhibition of GAPDH enzyme activity [5]: maximally inhibited
Molecule: CC(C)[C@H]1CC[C@@]2(CO2)[C@H]2C(=O)OCC(C(=O)O)=C[C@H]12 [Koningic acid]
